Reference: article PMC6920806, “Synthesis of β-D-galactopyranoside-Presenting Glycoclusters, Investigation of Their Interactions with Pseudomonas aeruginosa Lectin A (PA-IL) and Evaluation of Their Anti-Adhesion Potential” (Biomolecules, 2019)
Converted amounts (≈) assume the structure as drawn. “Also recorded” adds a separate entry of the source. Read-outs that look alike come from different tables or passages of the source.

Columns and labels:
lectin PA-IL [1] = target: T1, lectin PA-IL (Pseudomonas aeruginosa, UniProt Q05097); assay: Hemagglutination inhibition assay (HIA) with microscope detection; assay type: biochemical; conditions: for Potency (MIC of standard/MIC of inhibitor) / β (Potency/Valency): HIA, standard D-galactose; for MIC (minimal inhibitory concentration): inhibition of hemagglutination caused by PA-IL (0.125 mg mL−1), papain-treated red blood cells B+
T1 construct: made in house; host or cells: Escherichia coli BL21(DE3)
T1 sequence (Q05097 2-122): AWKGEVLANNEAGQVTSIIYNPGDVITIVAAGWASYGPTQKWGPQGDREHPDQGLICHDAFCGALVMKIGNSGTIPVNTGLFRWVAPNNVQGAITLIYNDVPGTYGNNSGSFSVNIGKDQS
Protocol: PA-IL was dissolved in the buffer with calcium ions suitable for the activity of the lectin (20 mM Tris/HCl, 150 mM NaCl, 5 mM CaCl2, pH = 7.5) to the concentration 0.25 mg mL^−1. Lectin was mixed with carbohydrate inhibitors serially diluted in the buffer in a 5 µL:5 µL ratio. Therefore, the final (working) concentration of the lectin was 0.125 mg mL^−1. A total of 10 µL of 20% papain-treated, azid-stabilized red blood cells B^+ in the buffer was then added, and the mixture was thoroughly mixed and incubated for 5 min at room temperature. After incubation, the mixture was again mixed, transferred to a microscope slide, and examined. The examination was conducted using the Levenhuk D2L NG Digital Microscope (Levenhuk, Tampa, FL, USA). Images were obtained with a Levenhuk D2L digital camera (Levenhuk, Tampa, FL, USA) using the software ToupView for Windows (Version 3.7, Levenhuk, Tampa, FL, USA). The positive (experiment without inhibitor) and negative control (experiment without lectin) were prepared and processed in the same way using the appropriate volume of dissolving buffer instead of the omitted components. The minimal inhibitory concentration (MIC) of the inhibitor able to inhibit hemagglutination was determined and compared with the standard (D-galactose) and the potency of the inhibitor was calculated (MIC of the standard/MIC of the inhibitor).

lectin PA-IL [2] = target: T1, lectin PA-IL; assay: SPR inhibition of PA-IL binding to immobilized D-galactosides; conditions: for Potency (IC50 of standard/IC50 of inhibitor) / β (Potency/Valency): standard D-galactose
Protocol: Surface plasmon resonance (SPR) experiments were performed on a BIAcore T200 instrument (GE Healthcare, Chicago, IL, USA) at 25 °C, using HBST running buffer (10 mM HEPES, 150 mM NaCl, 0.5 mM CaCl2, 0.05% Tween 20, pH = 7). A CM5 sensor chip (GE Healthcare, Chicago, IL, USA) covered with a carboxymethylated dextran matrix was used for ligand immobilization. The sensor chip surface was activated with N-ethyl-N-(3-dimethylaminopropyl)carbodiimide/N-hydroxysuccinimide solution and then coated with streptavidin (Sigma-Aldrich, St. Louis, MO, USA) in 10 mM acetate pH = 5.0 according to the manufacturer’s standard protocol to a final response of 7000 RU. Unreacted groups were blocked with 1 M ethanolamine-HCl, pH = 8.5. 0.5 mM biotinylated carbohydrate (1:1 mixture of biotin-α-D-galactoside and biotin-β-D-galactoside for measuring channel and α-L-fucoside for blank channel, all Lectinity, Moskow, Russia) was injected into a particular channel at a flow rate of 5 μL min^−1.
In the experimental setup, SPR inhibition measurements were carried out simultaneously on both measuring and blank channels at a flow rate of 5 µL min^−1. […] The response of the blank channel was subtracted from the response of lectin bound to the galactose-modified surface at equilibrium and plotted against the concentration of inhibitor in order to determine IC50 (concentration of inhibitor resulting in 50% inhibition of binding). As IC50 is not a constant and depends on the experimental set-up, a parameter called potency was used for characterization. The potency of a tested inhibitor is the ratio of IC50 of a chosen standard inhibitor (in this case, D-galactose) and the inhibitor in question. Pure lectin PA-IL was used as a control (0% inhibition).

[3] = tested on: adhesion of P. aeruginosa (ST 1763) to epithelial bronchial cells (CuFi-1); assay: Ex vivo bacterial adherence assay: inhibition of P. aeruginosa adhesion to epithelial cells; assay type: cell-based, Pseudomonas aeruginosa; conditions: for inhibitory effect on bacterial adhesion compared to the control / bacterial adhesion compared to the untreated control: 2 h incubation; for bacterial adhesion compared to the untreated control: highest concentration (2 mM); for concentrations with significant protecting (anti-adhesion) effect: p < 0.05, Dunnett test
Protocol: Epithelial CuFi-1 cells (an immortalized epithelial cell line derived from cystic fibrosis human lungs, ATCC, Kielpin, Poland) were labelled with PKH67 (Fluorescent Cell Linker Kit, Sigma-Aldrich, St. Louis, MO, USA), a green fluorescent membrane marker, as follows. An aliquot of cell suspension containing 7 × 10^6 cells was washed with PBS buffer and centrifuged (100× g for 5 min). The cell pellet was resuspended in 250 µL of Diluent C (Fluorescent Cell Linker Kit, Sigma-Aldrich, St. Louis, MO, USA). Immediately, an equal volume of 8 µM PKH67 in Diluent C (2 µL of PKH67 in 248 µL of Diluent C) was added to the cell suspension. After 5 min incubation at room temperature with periodic mixing, the staining reaction was stopped by adding an equal volume of 1% Fetal Bovine Serum (FBS, Gibco^TM Invitrogen, Paisley, UK) in PBS. After 1 min incubation with FBS, the suspension was centrifuged (100× g for 10 min). Finally, the cells were washed three times with Bronchial Epithelial Cell Growth Basal Medium (Lonza, Basel, Switzerland), followed by centrifugation (100× g for 5 min).
Pseudomonas aeruginosa strain 1763 (University Hospital Motol, Prague, Czech Republic) was stained with PKH26 (Fluorescent Cell Linker Kit, Sigma-Aldrich, St. Louis, MO, USA), a red fluorescent membrane marker. Bacteria were grown in a suspension culture in PS medium (peptone/casein digest) in an Erlenmeyer flask for 14 h. The culture was washed with PBS buffer and centrifuged (13,400× g for 5 min). The pellet containing 1.5 × 10^9 bacteria was resuspended in 125 µL of Diluent C (Fluorescent Cell Linker Kit, Sigma-Aldrich, St. Louis, MO, USA) and an equal volume of 16 µM PKH26 in Diluent C (2 µL of PKH26 in 123 µL of Diluent C) was added to the bacterial suspension. The bacteria/dye suspension was incubated for 30 min at room temperature with periodic mixing. The staining was quenched by adding an equal volume of 1% BSA (Bovine Serum Albumin, Merck, Kenilworth, NJ, USA) in PBS. The suspension was incubated with BSA for 1 min to allow the binding of excess dye and then centrifuged (15,700× g for 10 min). Bacteria were washed two times with PBS, followed by centrifugation (13,400× g for 7.5 and 5 min).
Epithelial cells CuFi-1 stained with PKH67 were seeded at 8.4 × 10^4 cells/well onto 96-well plates (CellBIND® 96-well Flat Clear Bottom Black Polystyrene Microplates, Corning Incorporated, Corning, NY, USA) and incubated for 42–45 h at 37 °C, 5% CO2 to form a confluent monolayer and regenerate. Prior to the assay, wells were washed with PBS. Compounds 4, 7, 10 and 13 were serially diluted with PBS to the desired concentrations. PKH26-stained bacteria P. aeruginosa were added to the diluted inhibitor solutions. Bacterial suspensions were immediately added to the wells (50 µL/well). The input ratio was about 100 bacteria per epithelial cell (8.4 × 10^6 bacteria/well). A suspension without any inhibitor was used as a control. After 2 h incubation at room temperature, the wells were extensively washed three times with PBS to remove non-adhered bacteria. The fluorescence of adhered P. aeruginosa cells (Ex 522 nm, Em 569 nm for PKH26) on epithelial cells (Ex 470 nm, Em 505 for PKH67) was quantified using the spectrofluorometer Tecan Infinite M200 Pro (Tecan Group Ltd., Männedorf, Switzerland). Results were expressed as a relative fluorescence ratio of P. aeruginosa/CuFi-1. Three independent incubations were performed.

[4] = read-out: IC50 (concentration of inhibitor resulting in 50% inhibition of binding), SPR, PA-IL 45 µM, galactoside-modified chip, 25 °C

Question: With `COC(=O)c1cc(OCc2cn(CCOCCOCCOCCn3cc(CO[C@@H]4O[C@H](CO)[C@H](O)[C@H](O)[C@H]4O)nn3)nn2)c(OCc2cn(CCOCCOCCOCCn3cc(CO[C@@H]4O[C@H](CO)[C@H](O)[C@H](O)[C@H]4O)nn3)nn2)c(OCc2cn(CCOCCOCCOCCn3cc(CO[C@@H]4O[C@H](CO)[C@H](O)[C@H](O)[C@H]4O)nn3)nn2)c1` [Compound 4] as the molecule, how does the “Potency (MIC of standard/MIC of inhibitor)” value (lectin PA-IL [1]) read?
Answer: The value was 128.

Question: What about the “β (Potency/Valency)” value (lectin PA-IL [1]) of the same molecule?
Answer: Its value is 42.7.

Question: What about the “MIC (minimal inhibitory concentration)” value (lectin PA-IL [1]) of the same molecule?
Answer: Its value is 48.83 µM (≈ 82.3 µg/mL).

Question: What about the “Potency (IC50 of standard/IC50 of inhibitor)” value (lectin PA-IL [2]; SPR) of the same molecule?
Answer: The value was 27.5.

Question: And the “β (Potency/Valency)” value (lectin PA-IL [2]; SPR)?
Answer: Its value is 9.2.

Question: What about the IC50 (lectin PA-IL [2]; [4]) of the same molecule?
Answer: Its IC50 is 6.8 µM.

Question: And the “inhibitory effect on bacterial adhesion compared to the control” value [3]?
Answer: The value was “no inhibitory effect; also recorded: no visible protective effect”.

Question: Which “Potency (MIC of standard/MIC of inhibitor)” value (lectin PA-IL [1]) does the source give for `OC[C@H]1O[C@@H](OCc2cn(CCOCCOCCOCCn3cc(COCC(COCc4cn(CCOCCOCCOCCn5cc(CO[C@@H]6O[C@H](CO)[C@H](O)[C@H](O)[C@H]6O)nn5)nn4)(COCc4cn(CCOCCOCCOCCn5cc(CO[C@@H]6O[C@H](CO)[C@H](O)[C@H](O)[C@H]6O)nn5)nn4)COCc4cn(CCOCCOCCOCCn5cc(CO[C@@H]6O[C@H](CO)[C@H](O)[C@H](O)[C@H]6O)nn5)nn4)nn3)nn2)[C@H](O)[C@@H](O)[C@H]1O` [Compound 7] here?
Answer: The value was 256.

Question: What about the “β (Potency/Valency)” value (lectin PA-IL [1]) of the same molecule?
Answer: Its value is 64.

Question: What about the “MIC (minimal inhibitory concentration)” value (lectin PA-IL [1]) of the same molecule?
Answer: The value was 24.41 µM (≈ 52.2 µg/mL).

Question: And the “Potency (IC50 of standard/IC50 of inhibitor)” value (lectin PA-IL [2]; SPR)?
Answer: The value was 25.6.

Question: What about the “β (Potency/Valency)” value (lectin PA-IL [2]; SPR) of the same molecule?
Answer: Its value is 6.4.

Question: What about the IC50 (lectin PA-IL [2]; [4]) of the same molecule?
Answer: The IC50 was 7.3 µM.

Question: What about the “inhibitory effect on bacterial adhesion compared to the control” value [3] of the same molecule?
Answer: The value was “no inhibitory effect; also recorded: no visible protective effect”.

Question: Which “Potency (MIC of standard/MIC of inhibitor)” value (lectin PA-IL [1]) does the source give for `OC[C@H]1O[C@@H](OCc2cn(CCn3cc(COCC(COCc4cn(CCn5cc(CO[C@@H]6O[C@H](CO)[C@H](O)[C@H](O)[C@H]6O)nn5)nn4)(COCc4cn(CCn5cc(CO[C@@H]6O[C@H](CO)[C@H](O)[C@H](O)[C@H]6O)nn5)nn4)COCc4cn(CCn5cc(CO[C@@H]6O[C@H](CO)[C@H](O)[C@H](O)[C@H]6O)nn5)nn4)nn3)nn2)[C@H](O)[C@@H](O)[C@H]1O` [Compound 13] here?
Answer: The value was 128.

Question: What about the “β (Potency/Valency)” value (lectin PA-IL [1]) of the same molecule?
Answer: Its value is 32.

Question: And the “MIC (minimal inhibitory concentration)” value (lectin PA-IL [1])?
Answer: Its value is 48.83 µM (≈ 78.6 µg/mL).

Question: And the IC50 (lectin PA-IL [2]; [4])?
Answer: Its IC50 is 4.3 µM.

Question: What about the “lower concentrations resulting in statistically significantly increased fluorescent signal (adhered bacteria)” value [3] of the same molecule?
Answer: Its value is at most 125 µM.

Question: And the “bacterial adhesion compared to the untreated control” value [3]?
Answer: The value was about 42%.

Question: What about the “concentrations with significant protecting (anti-adhesion) effect” value [3] of the same molecule?
Answer: Its value is at least 1 mM.

Question: `COC(=O)c1cc(OCc2cn(CCn3cc(CO[C@@H]4O[C@H](CO)[C@H](O)[C@H](O)[C@H]4O)nn3)nn2)c(OCc2cn(CCn3cc(CO[C@@H]4O[C@H](CO)[C@H](O)[C@H](O)[C@H]4O)nn3)nn2)c(OCc2cn(CCn3cc(CO[C@@H]4O[C@H](CO)[C@H](O)[C@H](O)[C@H]4O)nn3)nn2)c1` [Compound 10] was tested. Which “Potency (MIC of standard/MIC of inhibitor)” value (lectin PA-IL [1]) did it give?
Answer: Its value is 64.

Question: And the “β (Potency/Valency)” value (lectin PA-IL [1])?
Answer: Its value is 21.3.

Question: And the “MIC (minimal inhibitory concentration)” value (lectin PA-IL [1])?
Answer: The value was 97.66 µM (≈ 126 µg/mL).

Question: And the IC50 (lectin PA-IL [2])?
Answer: The IC50 was 7.4 µM.

Question: And the “Potency (IC50 of standard/IC50 of inhibitor)” value (lectin PA-IL [2]; SPR)?
Answer: Its value is 25.3.

Question: And the “β (Potency/Valency)” value (lectin PA-IL [2]; SPR)?
Answer: Its value is 8.4.

Question: And the “lower concentrations resulting in statistically significantly increased fluorescent signal (adhered bacteria)” value [3]?
Answer: Its value is at most 125 µM.

Question: What about the “bacterial adhesion compared to the untreated control” value [3] of the same molecule?
Answer: Its value is “approximately 32%”.

Question: What about the “concentrations with significant protecting (anti-adhesion) effect” value [3] of the same molecule?
Answer: Its value is at least 1 mM.
